Results from patent publication US8076144B2, “Protocol for risk stratification of ischemic events and optimized individualized treatment” (Cora Healthcare, Inc., priority 1999, dated 2011).

Test system: whole blood clot formation
Test: Ecarin-activated TEG hemostasis analysis of recalcified sodium-citrated samples taken before and after in vivo anticoagulation therapy
Set-up: species or system human
Details: 14b
Excerpt: One exemplary protocol utilizes a sample, e.g., sample 13, that is obtained from a subject prior to administration of the anticoagulation therapy. Another sample is obtained at a first time period following administration of an anticoagulation therapy such as a direct thrombin inhibitor therapy like bivalirudin, heparin or warfarin. Each sample may be obtained into sodium citrate.
The sodium-citrated samples are recalcified, and an additional reagent is provided such as a prothrombin activator such as ecarin. The hemostasis analyzer 10 is used to measure the time to initial clot formation, R. FIG. 13 illustrates data for a sample of subjects showing time to initial clot formation R before in vivo administration of the anticoagulation therapy and after in vivo administration of the anticoagulation therapy. FIGS. 14a and 14b illustrate tracings and, respectively, showing a typical set of hemostasis parameter data before in vivo administration of the anticoagulation therapy and after in vivo administration of the anticoagulation therapy. […] Importantly, there exists correlation between the delay in initial clot formation and the dosing of the anticoagulation therapy. […]

bivalirudin
delay in onset of clot formation (time to initial clot formation R) (samples from subjects before vs after in vivo administration, recalcified citrated blood with ecarin, FIGS. 13, 14a): direct relationship to bivalirudin dosing | rate of clot formation α, clot strength MA and lysis LY30 (tracings before and after in vivo administration, FIGS. 14a): within expected norms
